pEC50, pKi: −log10 of the molar value. Like-named read-outs stand apart in the source and are kept apart here.
Key:
[1] = tested on: mouse FL5.12 cells transfected with Bcl-XL; assay: FL5.12 cellular assay (cell viability, CellTiter-Glo); assay type: cell-based; details: FL5.12 cells transfected with Bcl-XL, IL-3-depleted, 3% FBS assay media, 24 hours, CellTiter-Glo, read-out: FL5.12 Bcl-xL, - IL3, EC 50;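 also: each EC50 determination derived from duplicate measurements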
GST-Bcl-xL = GST-Bcl-xL (Homo sapiens, UniProt Q07817); details: read-out: TR-FRET binding Bcl-xL Ki
Sequence of GST-Bcl-xL (Q07817 whole entry): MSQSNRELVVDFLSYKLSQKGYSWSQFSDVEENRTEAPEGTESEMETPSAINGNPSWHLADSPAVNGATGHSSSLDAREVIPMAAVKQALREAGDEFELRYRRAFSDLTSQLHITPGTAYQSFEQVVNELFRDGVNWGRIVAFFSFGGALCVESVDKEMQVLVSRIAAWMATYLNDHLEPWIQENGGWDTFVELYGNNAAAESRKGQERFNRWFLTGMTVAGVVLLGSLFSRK

| Molecule | pEC50 ([1]; Mus musculus) | pKi (GST-Bcl-xL) | pEC50 [1] |
| --- | --- | --- | --- |
| Cc1cc(OCC2CCCCC2)ccc1-c1ccc(N2CCc3cccc(C(=O)Nc4nc5ccccc5s4)c3C2)nc1C(=O)O [Example 115, 6-[8-(1,3-benzothiazol-2-ylcarbamoyl)-3,4-dihydroisoquinolin-2(1H)-yl]-3-[4-(cyclohexylmethoxy)-2-methylphenyl]pyridine-2-carboxylic acid] | 6.04 | 8.30 |  |
| O=C(Nc1nc2ccccc2s1)c1cccc2c1CN(c1ccc(-c3cnn(Cc4ccccn4)c3)c(C(=O)O)n1)CC2 [Example 26, 6-[8-(1,3-benzothiazol-2-ylcarbamoyl)-3,4-dihydroisoquinolin-2(1H)-yl]-3-[1-(pyridin-2-ylmethyl)-1H-pyrazol-4-yl]pyridine-2-carboxylic acid] |  | 6.78 | < 6.00 |
| O=C(Nc1nc2ccccc2s1)c1cccc2c1CN(c1ccc(-c3cnn(Cc4ccccc4OCc4ccccc4)c3)c(C(=O)O)n1)CC2 [Example 31, 6-[8-(1,3-benzothiazol-2-ylcarbamoyl)-3,4-dihydroisoquinolin-2(1H)-yl]-3-{1-[2-(benzyloxy)benzyl]-1H-pyrazol-4-yl}pyridine-2-carboxylic acid] | < 6.00 | 7.74 |  |
| COC1(Cn2ncc(-c3ccc(N4CCc5cccc(C(=O)Nc6nc7ccccc7s6)c5C4)nc3C(=O)NS(C)(=O)=O)c2C)CCCC(C)(C)C1 (centres unmarked) [Example 162, N-(1,3-benzothiazol-2-yl)-2-(5-{1-[(1-methoxy-3,3-dimethylcyclohexyl)methyl]-5-methyl-1H-pyrazol-4-yl}-6-[(methylsulfonyl)carbamoyl]pyridin-2-yl)-1,2,3,4-tetrahydroisoquinoline-8-carboxamide] | 8.30 | > 10.00 |  |
| CCOC(=O)c1cc(-c2ccc(N3CCc4cccc(C(=O)Nc5nc6ccccc6s5)c4C3)nc2C(=O)O)c(C)n1Cc1ccccc1 [Example 123, 6-[8-(1,3-benzothiazol-2-ylcarbamoyl)-3,4-dihydroisoquinolin-2(1H)-yl]-3-[1-benzyl-5-(ethoxycarbonyl)-2-methyl-1H-pyrrol-3-yl]pyridine-2-carboxylic acid] | 7.80 | > 10.00 |  |
| O=C(Nc1nc2ccccc2s1)c1cccc2c1CN(c1ccc(-c3cccc4c3cnn4Cc3ccccc3)c(C(=O)O)n1)CC2 [Example 187, 6-[8-(1,3-benzothiazol-2-ylcarbamoyl)-3,4-dihydroisoquinolin-2(1H)-yl]-3-(1-benzyl-1H-indazol-4-yl)pyridine-2-carboxylic acid] | 6.50 | 9.40 |  |
| Cc1cc(OC2CCCCC2)ccc1-c1ccc(N2CCc3cccc(C(=O)Nc4nc5ccccc5s4)c3C2)nc1C(=O)O [Example 113, 6-[8-(1,3-benzothiazol-2-ylcarbamoyl)-3,4-dihydroisoquinolin-2(1H)-yl]-3-[4-(cyclohexyloxy)-2-methylphenyl]pyridine-2-carboxylic acid] | < 6.00 | 7.72 |  |
| O=C(Nc1nc2ccccc2s1)c1cccc2c1CN(c1ccc(-c3cn(Cc4ccccc4)nn3)c(C(=O)O)n1)CC2 [Example 122, 6-[8-(1,3-benzothiazol-2-ylcarbamoyl)-3,4-dihydroisoquinolin-2(1H)-yl]-3-(1-benzyl-1H-1,2,3-triazol-4-yl)pyridine-2-carboxylic acid] | < 6.00 | 6.93 |  |
| O=C(Nc1nc2ccccc2s1)c1cccc2c1CN(c1ccc(-c3cnn(C(CC4CCCCC4)c4ccccc4)c3)c(C(=O)O)n1)CC2 (centres unmarked) [Example 96, 6-[8-(1,3-benzothiazol-2-ylcarbamoyl)-3,4-dihydroisoquinolin-2(1H)-yl]-3-[1-(2-cyclohexyl-1-phenylethyl)-1H-pyrazol-4-yl]pyridine-2-carboxylic acid] | 6.21 | 7.92 |  |
| Cc1ccc(Oc2ccccc2)cc1-c1ccc(N2CCc3cccc(C(=O)Nc4nc5ccccc5s4)c3C2)nc1C(=O)O [Example 109, 6-[8-(1,3-benzothiazol-2-ylcarbamoyl)-3,4-dihydroisoquinolin-2(1H)-yl]-3-(2-methyl-5-phenoxyphenyl)pyridine-2-carboxylic acid] | < 6.00 | 7.31 |  |
| Cc1c(-c2ccc(N3CCc4cccc(C(=O)Nc5nc6ccccc6s5)c4C3)nc2C(=O)O)cnn1CC1(N2CCOCC2)CCCCC1 [Example 160, 6-[8-(1,3-benzothiazol-2-ylcarbamoyl)-3,4-dihydroisoquinolin-2(1H)-yl]-3-(5-methyl-1-{[1-(morpholin-4-yl)cyclohexyl]methyl}-1H-pyrazol-4-yl)pyridine-2-carboxylic acid] | 7.85 | > 10.00 |  |
| O=C(Nc1nc2ccccc2s1)c1cccc2c1CN(c1ccc(-c3cnn(Cc4cccc(N5CCCC5)n4)c3)c(C(=O)O)n1)CC2 [Example 22, 6-[8-(1,3-benzothiazol-2-ylcarbamoyl)-3,4-dihydroisoquinolin-2(1H)-yl]-3-(1-{[6-(pyrrolidin-1-yl)pyridin-2-yl]methyl}-1H-pyrazol-4-yl)pyridine-2-carboxylic acid] | 6.67 | 8.22 |  |
| CCOC(=O)c1nn(Cc2ccccc2)c(C)c1-c1ccc(N2CCc3cccc(C(=O)Nc4nc5ccccc5s4)c3C2)nc1C(=O)O [Example 33, 6-[8-(1,3-benzothiazol-2-ylcarbamoyl)-3,4-dihydroisoquinolin-2(1H)-yl]-3-[1-benzyl-3-(ethoxycarbonyl)-5-methyl-1H-pyrazol-4-yl]pyridine-2-carboxylic acid] | < 6.00 | 6.77 |  |
| COCCCC1(Cn2ncc(-c3ccc(N4CCc5cccc(C(=O)Nc6nc7ccccc7s6)c5C4)nc3C(=O)O)c2C)CCCCCC1 [Example 147, 6-[8-(1,3-benzothiazol-2-ylcarbamoyl)-3,4-dihydroisoquinolin-2(1H)-yl]-3-(1-{[1-(3-methoxypropyl)cycloheptyl]methyl}-5-methyl-1H-pyrazol-4-yl)pyridine-2-carboxylic acid] |  | > 10.00 | 9.00 |
| O=C(Nc1nc2ccccc2s1)c1cccc2c1CN(c1ccc(-c3cnn(CC4CCCCC4)c3C3CC3)c(C(=O)O)n1)CC2 [Example 70, 6-[8-(1,3-benzothiazol-2-ylcarbamoyl)-3,4-dihydroisoquinolin-2(1H)-yl]-3-[1-(cyclohexylmethyl)-5-cyclopropyl-1H-pyrazol-4-yl]pyridine-2-carboxylic acid] | 7.24 | 8.30 |  |
| O=C(Nc1nc2ccccc2s1)c1cccc2c1CN(c1ccc(-c3cnn(CCc4ccccc4)c3)c(C(=O)O)n1)CC2 [Example 38, 6-[8-(1,3-benzothiazol-2-ylcarbamoyl)-3,4-dihydroisoquinolin-2(1H)-yl]-3-[1-(2-phenylethyl)-1H-pyrazol-4-yl]pyridine-2-carboxylic acid] |  | 7.32 | < 6.00 |
| O=C(Nc1nc2ccccc2s1)c1cccc2c1CN(c1ccc(-c3cnn(CC4(c5ccccc5)CCCCC4)c3)c(C(=O)O)n1)CC2 [Example 67, 6-[8-(1,3-benzothiazol-2-ylcarbamoyl)-3,4-dihydroisoquinolin-2(1H)-yl]-3-{1-[(1-phenylcyclohexyl)methyl]-1H-pyrazol-4-yl}pyridine-2-carboxylic acid] | 6.97 | 8.15 |  |
| O=C(Nc1nc2ccccc2s1)c1cccc2c1CN(c1ccc(-c3cn(Cc4ccccc4)c4cnccc34)c(C(=O)O)n1)CC2 [Example 188, 6-[8-(1,3-benzothiazol-2-ylcarbamoyl)-3,4-dihydroisoquinolin-2(1H)-yl]-3-(1-benzyl-1H-pyrrolo[2,3-c]pyridin-3-yl)pyridine-2-carboxylic acid] | 6.26 | 9.30 |  |
| 6-[8-(1,3-benzothiazol-2-ylcarbamoyl)-3,4-dihydroisoquinolin-2(1H)-yl]-3-(5-methyl-1-{[6-(pyrrolidin-1-yl)pyridin-2-yl]methyl}-1H-pyrazol-4-yl)pyridine-2-carboxylic acid and 6-(8-(1,3-benzothiazol-2-ylcarbamoyl)-3,4-dihydroisoquinolin-2(1H)-yl)-3-(3-methyl-1-((6-(pyrrolidin-1-yl)pyridin-2-yl)methyl)-1H-pyrazol-4-yl)pyridine-2-carboxylic acid [Example 32] |  |  | 6.67 |
| Cc1c(-c2ccc(N3CCc4cccc(C(=O)Nc5nc6ccccc6s5)c4C3)nc2C(=O)O)cnn1Cc1ccccc1OCC1CCOCC1 [Example 99, 6-[8-(1,3-benzothiazol-2-ylcarbamoyl)-3,4-dihydroisoquinolin-2(1H)-yl]-3-{5-methyl-1-[2-(tetrahydro-2H-pyran-4-ylmethoxy)benzyl]-1H-pyrazol-4-yl}pyridine-2-carboxylic acid] | 7.22 |  |  |
| Cc1c(-c2ccc(N3CCc4cccc(C(=O)Nc5nc6ccccc6s5)c4C3)nc2C(=O)O)cccc1N(C)C1CCCC(C)(C)C1 (centres unmarked) [Example 159, 6-[8-(1,3-benzothiazol-2-ylcarbamoyl)-3,4-dihydroisoquinolin-2(1H)-yl]-3-{3-[(3,3-dimethylcyclohexyl)(methyl)amino]-2-methylphenyl}pyridine-2-carboxylic acid] | 7.51 |  |  |
| Cc1c(-c2ccc(N3CCc4cccc(C(=O)Nc5nc6ccccc6s5)c4C3)nc2C(=O)O)cnn1C[C@@H]1CC[C@@H]2C[C@H]1C2(C)C [Example 85, 6-[8-(1,3-benzothiazol-2-ylcarbamoyl)-3,4-dihydroisoquinolin-2(1H)-yl]-3-(1-{[(1R,2R,5R)-6,6-dimethylbicyclo[3.1.1]hept-2-yl]methyl}-5-methyl-1H-pyrazol-4-yl)pyridine-2-carboxylic acid] | > 9.00 |  |  |
| Cc1c(-c2ccc(N3CCc4cccc(C(=O)Nc5nc6ccccc6s5)c4C3)nc2C(=O)O)cccc1N(C)c1ccccc1 [Example 156, 6-[8-(1,3-benzothiazol-2-ylcarbamoyl)-3,4-dihydroisoquinolin-2(1H)-yl]-3-{2-methyl-3-[methyl(phenyl)amino]phenyl}pyridine-2-carboxylic acid] | 7.82 |  |  |
